Results as given in article PMC7829355, “Antimicrobial Activity of Lipopeptide Biosurfactants Against Foodborne Pathogen and Food Spoilage Microorganisms and Their Cytotoxicity” (Frontiers in Microbiology, 2021).
Converted amounts (≈) assume the structure as drawn. “And” between values parts separate entries of the source, which are not always exact repeats. Equal values may be shown once. Read-outs that look alike come from different tables or passages of the source.

Legend:
[1] = system: Candida krusei ATCC 6258; experiment: Antifungal susceptibility against yeast, broth microdilution in RPMI-1640; type: cell-based; conditions: for MIC: Pichia kudriavzevii, ATCC6258, C. krusei, RPMI-1640 liquid media
Protocol: The antifungal susceptibility test against yeasts was performed according to the broth microdilution method, as described previously ([Urbañski et al., 2002]; [Schwalbe et al., 2007]). Candida krusei ATCC 6258 was used as the quality control organism, to verify that antifungal concentrations were prepared properly. In addition, amphotericin B, an effective antifungal antibiotic produced by Streptomyces nodosus and part of the WHO List (World Health Organization) of Essential Medicines, was used as a reference compound. The test medium used was RPMI-1640 (with glutamine, without bicarbonate and with a pH indicator) broth with [3-(N-morpholino)]-propanesulfonic acid (MOPS) buffer. All tests were performed in U-shaped 96-well plates. Three technical replicates of each assay were carried out on the same day with the same culture and chemical compound with the aforementioned experiment repeated also in triplicate on different days using different cultures (biological replicates) resulting in a total of nine replicates for each assay. The yeasts tested were Zygosaccharomyces bailli NCYC 464 and Debaryomyces hansenii NCYC 102.

[2] = system: Byssochamys fulva IMI 040021; experiment: Antifungal susceptibility against filamentous fungi, broth microdilution; type: cell-based, Byssochlamys fulva
Protocol: (§1) In this set of experiments, Candida krusei ATCC 6258 and amphotericin B were used to perform quality control tests for validation. As mentioned above, the test medium used was RPMI-1640 broth with MOPS buffer. Tests were performed in U-shaped 96-well plates in triplicates and the OD450nm was recorded after 7 days of incubation at 30°C. The fungi tested were Rhizopus stolonifer IMI 017314 and Paecilomyces variotii and Byssochamys fulva IMI 040021.

[3] = system: Paecilomyces variotii; experiment: as above; type: cell-based
Protocol: as §1

[4] = system: Rhizopus stolonifer IMI 017314; experiment: as above; type: cell-based
Protocol: as §1

[5] = system: Salmonella enterica NCTC 5188; experiment: Antibacterial susceptibility, broth microdilution MIC; type: cell-based; conditions: NCTC5188, S. enterica, 24 h
[6] = system: Escherichia coli K-12; experiment: as above; type: cell-based; conditions: E. coli K-12, broth microdilution, 24 h
Protocol: (§2) The antibacterial susceptibility testing was performed following the broth microdilution methodology, as described previously ([Schwalbe et al., 2007]), against both Gram-negative and Gram-positive foodborne pathogens and spoilage bacteria. The bacteria used were: Pseudomonas aeruginosa NCTC 10332, Salmonella enterica NCTC 5188, Escherichia coli K-12, Bacillus cereus MR59, Listeria monocytogenes 10403S, Carnobacterium divergens NCFB 2763, Leuconostoc mesenteroides NCIMB 08023, and Brochothrix thermosphacta NCDO 1676.
(§3) Two-fold dilutions were performed and 100 μL of each dilution was placed in each column of a flat bottomed 96-well plate. One column of the plate contained only the growth medium and served as the positive control while in another column contained 200 μL of the growth medium with the highest concentration of the lipopeptide tested (1,000 mg/L) and served as the negative control. Apart from the column that served as the negative control, the rest of the wells were inoculated with 100 μL of the bacterial culture tested. For the bacterial suspension preparation, cultures were incubated overnight in the appropriate medium (MHB or TSB). Bacterial density was adjusted to 0.5 McFarland and suspensions were subsequently diluted 1000 times using the growth test medium. The 96-well plates were then incubated at either 30or 37°C, depending on the optimal growth temperature of each microorganism, for 24 h and the OD620nm was assessed. The minimum inhibitory concentration (MIC) was defined as the lowest concentration of the antimicrobial agent tested that prevented any discernible growth after 24 h incubation.

[7] = system: Listeria monocytogenes 10403S; experiment: as above; type: cell-based; conditions: L. monocytogenes, 24 h
Protocol: as §2, §3

[8] = system: Leuconostoc mesenteroides NCIMB 08023; experiment: as above; type: cell-based; conditions: 24 h
Protocol: as §2, §3

[9] = system: Bacillus cereus MR59; experiment: as above; type: cell-based; conditions: 24 h
Protocol: as §2, §3

[10] = system: Brochothrix thermosphacta NCDO 1676; experiment: as above; type: cell-based; conditions: food preservatives, 24 h
Protocol: as §2, §3

[11] = system: Pseudomonas aeruginosa NCTC 10332; experiment: as above; type: cell-based; conditions: 24 h
Protocol: as §2, §3

[12] = system: Carnobacterium divergens NCFB 2763; experiment: as above; type: cell-based; conditions: C. divergens
Protocol: as §2, §3

[13] = system: Gram-positive bacteria; experiment: Antibacterial broth microdilution MIC, summary over Gram-positive strains; type: cell-based; conditions: range over the Gram-positive strains; read-out: MICs for Gram-positive bacteria
[14] = system: Vero cells; conditions: cited from earlier work; for IC50 cytotoxicity group, Vero cells: published IC50, MTT, ref literature review and EFSA database (Figure 4)
[15] = system: Caco-2 cells; conditions: cited from earlier work; for IC50 cytotoxicity group, Caco cells: published IC50, MTT, ref literature review and EFSA database (Figure 4); for IC50: Caco-2 cells, ref Zhao et al.
[16] = system: Vero SF cells; experiment: Cytotoxicity assay (CCK8, WST-8)
Protocol: The Vero SF cells line is recommended by EFSA to assess the toxigenic potential of Bacillus species used in animal nutrition ([EFSA, 2014]). Cells were cultured in Dulbecco’s modified Eagle’s medium supplemented with 10% FCS, 1% glutamine, and 1% penicillin-streptomycin. After 48 h, cell culture medium was replaced by fresh medium containing the tested compounds in various concentrations.
Cytotoxicity was determined through a commercial kit from SIGMA Aldrich (Saint-Louis, United States) named Cell Counting kit 8 (CCK8). This test is based on the water-soluble tetrazolium salt (WST-8) reduction by the dehydrogenase of the living cells only inducing the production of a yellow color formazan dye which is directly proportional to the number of cells. Twenty-four hours after addition the compounds, the WST-8 was added to the medium (100 μL/mL). After 2h incubation, absorption at […] was measured in a microplate-reader (Microplates reader SpectraMax® iD3, Molecular Devices, San Jose, United States) and values were expressed as percent of control.
As explained above, since some of the lipopeptides have limited solubility in aqueous solutions, prior to their cytotoxicity testing, the effect of the DMSO at the levels used to solubilize the lipopeptides, was assessed. […]

[17] = system: R. stolonifer; design: method as in Liu et al., 2014; conditions: ref Liu et al., 2014; cited from earlier work
[18] = system: Caco-2 cells
[19] = system: Caco-2 cells; experiment: Cytotoxicity assay (CCK8, WST-8); conditions: estimated IC50 of this study, 24 h of contact
[20] = system: C. divergens; experiment: Nisin-lipopeptide combinations, broth microdilution checkerboard panel; type: cell-based, Carnobacterium divergens; conditions: regardless of the surfactin concentrations; data not shown
Source text: For testing the antibacterial activity by combining nisin and lipopeptides, the broth microdilution assay described above was used, following the broth microdilution checkerboard panel ([Schwalbe et al., 2007]).

[21] = system: Escherichia coli; design: method as in Dhanarajan et al., 2016; conditions: purified surfactin homologues; ref Dhanarajan et al., 2016; cited from earlier work
[22] = nisin alone, lipopeptide alone, or lipopeptide with nisin at fixed 10 mg/L

Q: For `C[C@@H]1[C@H](O)[C@@H](C)/C=C/C=C/C=C/C=C/C=C/C=C/C=C/[C@H](O[C@@H]2O[C@H](C)[C@@H](O)[C@H](N)[C@@H]2O)C[C@@H]2O[C@](O)(C[C@@H](O)C[C@@H](O)[C@H](O)CC[C@@H](O)C[C@@H](O)CC(=O)O[C@H]1C)C[C@H](O)[C@H]2C(=O)O` [Amphotericin B, amphotericin B], which MIC ([1]; 24 h growth, read-out: MIC (mg/L) 24h) is on record?
A: The MIC was 0.5 mg/L (≈ 0.541 µM).

Q: What about the MIC ([1]; 48 h growth, read-out: MIC (mg/L) 48h) of the same compound?
A: Its MIC is 0.5 mg/L (≈ 0.541 µM).

Q: And the MIC ([2]; Paecilomyces fulvus, IMI040021, 168 h, 7 days of growth, RPMI-1640 liquid media, read-out: B. fulva MIC)?
A: Its MIC is 0.06 µg/mL (≈ 0.0649 µM).

Q: And the MIC ([3]; Paecilomyces variotii, 168 h, 7 days of growth, RPMI-1640 liquid media, read-out: P. variotii MIC)?
A: Its MIC is 0.06 µg/mL (≈ 0.0649 µM).

Q: And the MIC ([4]; Rhizopus stolonifer, IMI017314, 168 h, 7 days of growth, RPMI-1640 liquid media, read-out: R. stolonifer MIC)?
A: Its MIC is 0.5 µg/mL (≈ 0.541 µM).

Q: Which results are given for `O=C(O)CN(CCN(CC(=O)O)CC(=O)O)CC(=O)O` [EDTA, ethylenediaminetetraacetic acid]?
A: MIC [5]: 14600 µg/mL (≈ 50000 µM); MIC ([6]; Escherichia coli, K12, read-out: MIC): 14600 µg/mL (≈ 50000 µM); MIC ([7]; Listeria monocytogenes, 10403S, read-out: MIC): 228 µg/mL (≈ 780 µM); MIC ([8]; Leuconostoc mesenteroides, NCIMB08023, L. mesenteroides, read-out: MIC): 114 µg/mL (≈ 390 µM); MIC ([9]; Bacillus cereus, MR59, B. cereus, read-out: MIC): 228 µg/mL (≈ 780 µM); MIC ([10]; Brochothrix thermosphacta, NCDO1676, B. thermosphacta, read-out: MIC): 114 µg/mL (≈ 390 µM); MIC ([11]; Pseudomonas aeruginosa, NCTC10332, P. aeruginosa, read-out: MIC): 7310 µg/mL (≈ 25000 µM); MIC ([12]; Carnobacterium divergens, NCFB2763, food preservatives, broth microdilution, 24 h, read-out: MIC): 55.6 µg/mL; MIC [13]: 190 µM to 780 µM and 55.6 µg/mL to 228 µg/mL

Q: With `Cc1ccc(C(C)C)cc1O` [carvacol] as the compound, how does the “IC50 cytotoxicity group, Vero cells” value [14] read?
A: The value was “group 2 (group 2 with moderate cytotoxicity with IC50s between 10 and 100 mg/L)”.

Q: And the “IC50 cytotoxicity group, Caco cells” value [15]?
A: The value was “group 2 (group 2 with moderate cytotoxicity with IC50s between 10 and 100 mg/L)”.

Q: Which “IC50 cytotoxicity group, Vero cells” value [14] does the source give for `C=O` [formaldehyde (E240), formaldehyde] here?
A: Its value is “group 3 (group three with significant cytotoxicity with IC50 lower than 10 mg/L)”.

Q: What about the “IC50 cytotoxicity group, Caco cells” value [15] of the same compound?
A: Its value is “group three (group three with significant cytotoxicity with IC50 lower than 10 mg/L)”.

Q: With fengycin [Fengycin (F)] as the compound, how does the “cytotoxicity compared to nisin (E234)” value [16] read?
A: The value was “less cytotoxic”.

Q: With iturin as the compound, how does the “concentration at which growth of R. stolonifer is inhibited” value [17] read?
A: The value was 100 mg/L.

Q: Which IC50 ([14]; Vero cells, ref EFSA Panel on Additives and Products or Substances used in Animal Feed [FEEDAP], 2017) does the source give for iturin A here?
A: Its IC50 is “around 16 mg/L”.

Q: What about the “IC50 cytotoxicity group, Vero cells” value [14] of the same compound?
A: Its value is “group 2 (group 2 with moderate cytotoxicity with IC50s between 10 and 100 mg/L)”.

Q: What about the IC50 [15]; 2018 of the same compound?
A: The IC50 was 42 µg/mL.

Q: What about the IC50 [15]; 2019 of the same compound?
A: Its IC50 is 28 µg/mL.

Q: What about the “IC50 cytotoxicity group, Caco cells” value [15] of the same compound?
A: The value was “group 2 (group 2 with moderate cytotoxicity with IC50s between 10 and 100 mg/L)”.

Q: For mycosubtilin, which “cytotoxicity compared to nisin (E234)” value [18] is on record?
A: Its value is “three times less cytotoxic”.

Q: With nisin as the compound, how does the “IC50 cytotoxicity group, Vero cells” value ([16]; estimated IC50 of this study, 24 h of contact) read?
A: The value was “group 1 (group 1 of molecules with low cytotoxicity, IC50 above 100 mg/L)”.

Q: And the “IC50 cytotoxicity group, Caco cells” value [19]?
A: Its value is “group three (group three with significant cytotoxicity with IC50 lower than 10 mg/L)”.

Q: And the MIC [6]?
A: The MIC was over 107.3 µg/mL.

Q: What about the MIC [7] of the same compound?
A: The MIC was 6.71 µg/mL.

Q: What about the MIC ([8]; L. mesenteroides) of the same compound?
A: The MIC was 1.68 µg/mL.

Q: And the MIC ([9]; B. cereus)?
A: Its MIC is 6.71 µg/mL.

Q: And the MIC ([10]; B. thermosphacta)?
A: The MIC was 0.10 to 0.20 µg/mL.

Q: What about the MIC ([11]; P. aeruginosa) of the same compound?
A: Its MIC is over 107.3 µg/mL.

Q: What about the MIC ([12]; food preservatives, broth microdilution, 24 h) of the same compound?
A: Its MIC is 3.35 µg/mL.

Q: And the MIC ([12]; nisin)?
A: The MIC was 1000 µM.

Q: What about the “MIC of nisin for C. divergens when combined with surfactin” value [20] of the same compound?
A: The value was 3.35 µg/mL.

Q: And the “Lipopeptide MIC (mg/L) C. krusei” value [1, 22]?
A: Its value is over 125 mg/L.

Q: What about the “Lipopeptide MIC (mg/L) B. fulva” value [2, 22] of the same compound?
A: The value was over 125 mg/L.

Q: What about the “Lipopeptide MIC (mg/L) P. variotii” value [3, 22] of the same compound?
A: The value was over 125 mg/L.

Q: And the “Lipopeptide MIC (mg/L) R. stolonifer” value [4, 22]?
A: The value was over 125 mg/L.

Q: For surfactin C15, which MICs [21] is on record?
A: Its MICs is 60 mg/L.
